As a reminder, the Kd is the constant that tells how readily two partners part at equilibrium. The term IC50 denotes the concentration that gives 50% inhibition. In general, DC50 refers to the concentration giving 50% degradation.

Data on eleven compounds can be found in patent US20250115598A1 (Anaxis Pharma Pty Ltd, priority 2021, published 2025).

One test has as its target human MLKL (full length) (Homo sapiens (Human), UniProt Q8NB16). Kind of test: KINOMEscan binding assay, human MLKL (full length). Conditions: hMLKL, Table 25; read-out: MLKL (KD). The essentials: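 KINOMEscan competition binding using kinase-tagged T7 phage or HEK-293-produced DNA-tagged protein captured on ligand beads, with eluted protein quantified by qPCR. Compounds were run as an 11-point 3-fold series, top 30,000 nM, in 1% DMSO. Kd was fitted with the Hill equation, slope fixed at −1.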

Test [1] deals with Immortalised Mouse Dermal Fibroblasts (MDFs). Kind of test: Cellular assay: inhibition of TSI induced necroptosis, CellTitre-Glo viability. As to conditions: Mus musculus, Fibroblast; MDF, 3 hours TSI cocktail, Table 27; read-out: Inhibition of TSI-induced necroptosis (IC50 cell-based assay) in MDF. The essentials:
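Immortalised mouse dermal fibroblasts (2200 cells/well) pretreated 30 min with compound, 10-point 1:3 series from 36 μM, 0.3% DMSO. Then 3 h at 37° C. with TNF (100 ng/ml), Smac mimetic (500 nM) and IDN-6556 (10 μM). CellTiter-Glo luminescence normalised to DMSO (100%) and DMSO+TSI (0%); IC50 from 4-parameter logistic fit.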

Another test has as its target endogenous MLKL in U937 (Homo sapiens (Human), UniProt Q8NB16). In words: Degradation assay: endogenous MLKL in U937 (western blot). Conditions: U937, 24 h incubation, read-out: Degradation of endogenous MLKL in U937 (DC50 cell-based assay). The essentials:
(§1)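 MDF (seeded the day before) or U937 cells were treated 24 h at 37 °C, 10% CO2 with compound at 10, 2, 0.4, 0.08 and 0.016 μM final. Endogenous MLKL was quantified by western blot (anti-MLKL 3H1), normalized to GAPDH. Percent degradation was taken relative to DMSO control.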
A general note: A western blot detects proteins with antibodies after separation by electrophoresis.

A further test concerns the target endogenous MLKL in MDF (Mus musculus (Mouse), UniProt Q9D2Y4). In words: Degradation assay: endogenous MLKL in MDF (western blot). Conditions: MDF cells, 24 h incubation with compound, MLKL adjusted for loading with GAPDH, normalized to DMSO only control, read-out: Degradation of endogenous MLKL in MDF (DC50 cell-based assay). The essentials: as §1

Sequence of human MLKL (full length) (Q8NB16 whole entry): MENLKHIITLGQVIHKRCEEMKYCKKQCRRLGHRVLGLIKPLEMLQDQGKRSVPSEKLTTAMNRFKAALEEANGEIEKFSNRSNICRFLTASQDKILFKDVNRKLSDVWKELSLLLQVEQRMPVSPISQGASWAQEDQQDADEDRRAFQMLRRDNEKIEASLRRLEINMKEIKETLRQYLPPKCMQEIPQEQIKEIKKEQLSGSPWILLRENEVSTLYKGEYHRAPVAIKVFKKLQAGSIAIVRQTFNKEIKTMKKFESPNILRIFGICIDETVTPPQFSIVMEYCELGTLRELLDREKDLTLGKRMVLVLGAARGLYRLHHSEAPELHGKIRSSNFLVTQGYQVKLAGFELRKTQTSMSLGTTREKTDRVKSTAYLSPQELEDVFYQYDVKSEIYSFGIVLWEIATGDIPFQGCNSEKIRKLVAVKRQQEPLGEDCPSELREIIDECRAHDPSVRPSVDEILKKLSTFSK
Sequence of endogenous MLKL in U937 (Q8NB16 whole entry): as above
Sequence of endogenous MLKL in MDF (Q9D2Y4 whole entry): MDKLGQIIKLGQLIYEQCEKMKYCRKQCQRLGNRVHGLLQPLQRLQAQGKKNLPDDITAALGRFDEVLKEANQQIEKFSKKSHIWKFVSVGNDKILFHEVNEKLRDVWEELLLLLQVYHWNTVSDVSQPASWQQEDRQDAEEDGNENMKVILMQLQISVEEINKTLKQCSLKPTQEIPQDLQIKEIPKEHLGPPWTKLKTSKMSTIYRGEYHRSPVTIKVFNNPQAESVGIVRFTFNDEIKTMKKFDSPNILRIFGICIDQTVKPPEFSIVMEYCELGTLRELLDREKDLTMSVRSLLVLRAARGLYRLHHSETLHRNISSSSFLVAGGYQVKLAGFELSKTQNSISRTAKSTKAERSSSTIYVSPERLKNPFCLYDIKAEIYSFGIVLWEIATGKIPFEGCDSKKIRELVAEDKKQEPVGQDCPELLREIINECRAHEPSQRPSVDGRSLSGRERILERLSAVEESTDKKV

Turning to `C[C@H](Oc1cc(-c2nn(C)c3c(-c4cnn(C5CCN(C(=O)C6CC7(CCN(c8cccc9c8C(=O)N(C8CCC(=O)NC8=O)C9=O)CC7)C6)CC5)c4)cnc(N)c23)ccc1NS(=O)(=O)C(F)F)c1ccc(F)cc1` (stereo partly drawn) [Compound 1069, N-(4-{4-amino-7-[1-(1-{7-[2-(2,6-dioxopiperidin-3-yl)-1,3-dioxo-2,3-dihydro-1H-isoindol-4-yl]-7-azaspiro[3.5]nonane-2-carbonyl}piperidin-4-yl)-1H-pyrazol-4-yl]-1-methyl-1H-pyrazolo[4,3-c]pyridin-3-yl}-2-[(1S)-1-(4-fluorophenyl)ethoxy]phenyl)-1,1-difluoromethanesulfonamide], on human MLKL (full length), the Kd lay within 10 to 1000 nM. Also, in test [1], the IC50 is less than 1000 nM. Besides, the DC50 on endogenous MLKL in U937 and on endogenous MLKL in MDF was less than 1000 nM each time.

`CCS(=O)(=O)Nc1ccc(-c2nn(C)c3c(-c4cnn(C5CCN(C(=O)CCC6CCN(c7cccc8c7C(=O)N(C7CCC(=O)NC7=O)C8=O)CC6)CC5)c4)cnc(N)c23)cc1F` (centres unmarked) [Compound 1088, N-[4-(4-amino-7-{1-[1-(3-{1-[2-(2,6-dioxopiperidin-3-yl)-1,3-dioxo-2,3-dihydro-1H-isoindol-4-yl]piperidin-4-yl}propanoyl)piperidin-4-yl]-1H-pyrazol-4-yl}-1-methyl-1H-pyrazolo[4,3-c]pyridin-3-yl}-2-fluorophenyl]ethane-1-sulfonamide]: the Kd at human MLKL (full length) is less than 10 nM. Moreover, the IC50 in test [1] is less than 1000 nM. The DC50 on endogenous MLKL in U937 and on endogenous MLKL in MDF was less than 1000 nM throughout.

On to `C[C@H](Oc1cc(-c2nn(C)c3c(C#CC(=O)N[C@H]4C[C@H](Nc5cccc6c5C(=O)N(C5CCC(=O)NC5=O)C6=O)C4)cnc(N)c23)ccc1NS(=O)(=O)C(F)F)c1ccc(F)cc1` (stereo partly drawn) [Compound 1109, 3-{4-amino-3-[4-(difluoromethanesulfonamido)-3-[(1S)-1-(4-fluorophenyl)ethoxy]phenyl]-1-methyl-1H-pyrazolo[4,3-c]pyridin-7-yl}-N-[(trans)-3-{[2-(2,6-dioxopiperidin-3-yl)-1,3-dioxo-2,3-dihydro-1H-isoindol-4-yl]amino}cyclobutyl]prop-2-ynamide], for which the Kd at human MLKL (full length) is less than 10 nM. In addition, the IC50 in test [1] lay within 1000 to 10000 nM. Moreover, the DC50 at endogenous MLKL in U937 and at endogenous MLKL in MDF was less than 1000 nM each time.

With `C[C@H](Oc1cc(-c2nn(C)c3c(-c4cnn(C5CCN(CCC6CCN(c7cccc8c7C(=O)N(C7CCC(=O)NC7=O)C8=O)CC6)CC5)c4)cnc(N)c23)ccc1NS(=O)(=O)C(F)F)c1ccc(F)cc1` (stereo partly drawn) [Compound 1076, N-[4-(4-amino-7-{1-[1-(2-{1-[2-(2,6-dioxopiperidin-3-yl)-1,3-dioxo-2,3-dihydro-1H-isoindol-4-yl]piperidin-4-yl}ethyl)piperidin-4-yl]-1H-pyrazol-4-yl}-1-methyl-1H-pyrazolo[4,3-c]pyridin-3-yl)-2-[(1S)-1-(4-fluorophenyl)ethoxy]phenyl]-1,1-difluoromethane-sulfonamide], on human MLKL (full length), the Kd was less than 10 nM. Moreover, the half-maximal inhibitory concentration (IC50) in test [1] is less than 1000 nM. Further, the figures for the DC50 on endogenous MLKL in U937 and at endogenous MLKL in MDF were less than 1000 nM and 1000 to 10000 nM, respectively.

Turning to `C[C@H](Oc1cc(-c2nn(C)c3c(-c4cnn(C5CCN(CC6CCN(c7cccc8c7C(=O)N(C7CCC(=O)NC7=O)C8=O)CC6)CC5)c4)cnc(N)c23)ccc1NS(=O)(=O)C(F)F)c1ccc(F)cc1` (stereo partly drawn) [Compound 1079, N-[4-(4-amino-7-{1-[1-({1-[2-(2,6-dioxopiperidin-3-yl)-1,3-dioxo-2,3-dihydro-1H-isoindol-4-yl]piperidin-4-yl}methyl)piperidin-4-yl]-1H-pyrazol-4-yl}-1-methyl-1H-pyrazolo[4,3-c]pyridin-3-yl)-2-[(1S)-1-(4-fluorophenyl)ethoxy]phenyl]-1,1-difluoromethane-sulfonamide], at human MLKL (full length), the dissociation constant (Kd) is less than 10 nM. For the same compound, in test [1], the IC50 is less than 1000 nM. The DC50 on endogenous MLKL in U937 and on endogenous MLKL in MDF was less than 1000 nM in each case.

Take `C[C@H](Oc1cc(-c2nn(C)c3c(-c4cnn(C5CCN(CCCN6CCN(C(=O)COc7cccc8c7C(=O)N(C7CCC(=O)NC7=O)C8=O)CC6)CC5)c4)cnc(N)c23)ccc1NS(=O)(=O)C(F)F)c1ccc(F)cc1` (stereo partly drawn) [Compound 1099, N-(4-{4-amino-7-[1-(1-{3-[4-(2-{[2-(2,6-dioxopiperidin-3-yl)-1,3-dioxo-2,3-dihydro-1H-isoindol-4-yl]oxy}acetyl)piperazin-1-yl]propyl}piperidin-4-yl)-1H-pyrazol-4-yl]-1-methyl-1H-pyrazolo[4,3-c]pyridin-3-yl}-2-[(1S)-1-(4-fluorophenyl)ethoxy]phenyl)-1,1-difluoromethanesulfonamide]: at human MLKL (full length), the Kd was less than 10 nM. In test [1], the IC50 was in the range of 1000 to 10000 nM. In addition, the DC50 is less than 1000 nM on endogenous MLKL in U937 and 1000 to 10000 nM on endogenous MLKL in MDF.

Regarding `C[C@H](Oc1cc(-c2nn(C)c3c(-c4cnn(C5CCN(C(=O)CC6CCCN(c7cccc8c7C(=O)N(C7CCC(=O)NC7=O)C8=O)C6)CC5)c4)cnc(N)c23)ccc1NS(=O)(=O)C(F)F)c1ccc(F)cc1` (stereo partly drawn) [Compound 1073, N-[4-(4-amino-7-{1-[1-(2-{1-[1,3-dioxo-2-(2-oxo-piperidin-3-2,3-yl)-dihydro-1H-isoindol-4-yl]piperidin-3-yl}acetyl)piperidin-4-yl]-1H-pyrazol-4-yl}-1-methyl-1H-pyrazolo[4,3-c]pyridin-3-yl)-2-[(1S)-1-(4-fluorophenyl)ethoxy]phenyl]-1,1-difluoromethanesulfonamide], the Kd at human MLKL (full length) lay in the range of 10 to 1000 nM. In addition, in test [1], the half-maximal inhibitory concentration (IC50) is less than 1000 nM. The 50% degradation concentration (DC50) at endogenous MLKL in U937 and at endogenous MLKL in MDF was less than 1000 nM in each case.

Consider `Cn1nc(-c2ccc(NS(=O)(=O)CC(F)(F)F)c(F)c2)c2c(N)ncc(-c3cnn(C4CCN(C(=O)[C@H]5C[C@H](Nc6cccc7c6C(=O)N(C6CCC(=O)NC6=O)C7=O)C5)CC4)c3)c21` (stereo partly drawn) [Compound 1134, N-{4-[4-amino-1-methyl-7-(1-{1-[(trans)-3-{[2-(2,6-dioxopiperidin-3-yl)-1,3-dioxo-2,3-dihydro-1H-isoindol-4-yl]amino}cyclobutanecarbonyl]piperidin-4-yl}-1H-pyrazol-4-yl)-1H-pyrazolo[4,3-c]pyridin-3-yl]-2-fluorophenyl}-2,2,2-trifluoroethane-1-sulfonamide], for which the Kd at human MLKL (full length) was less than 10 nM. In addition, the IC50 in test [1] is less than 1000 nM. Moreover, the DC50 at endogenous MLKL in U937 and at endogenous MLKL in MDF was less than 1000 nM throughout.

With `C[C@H](Oc1cc(-c2nn(C)c3c(-c4cnn(C5CCN(CCc6ccc7c(c6)C(=O)N(C6CCC(=O)NC6=O)C7=O)CC5)c4)cnc(N)c23)ccc1NS(=O)(=O)C(F)F)c1ccc(F)cc1` (stereo partly drawn) [Compound 1123, N-(4-{4-amino-7-[1-(1-{2-[2-(2,6-dioxopiperidin-3-yl)-1,3-dioxo-2,3-dihydro-1H-isoindol-5-yl]ethyl}piperidin-4-yl)-1H-pyrazol-4-yl]-1-methyl-1H-pyrazolo[4,3-c]pyridin-3-yl}-2-[(1S)-1-(4-fluorophenyl)ethoxy]phenyl)-1,1-difluoromethanesulfonamide], the Kd on human MLKL (full length) is less than 10 nM. The IC50 in test [1] is less than 1000 nM. Besides, the DC50 at endogenous MLKL in U937 and on endogenous MLKL in MDF was less than 1000 nM each time.

Take `C[C@H](Oc1cc(-c2nn(C)c3c(-c4cnn(C5CCC(C(=O)N6CCN(c7cccc8c7C(=O)N(C7CCC(=O)NC7=O)C8=O)CC6)N(C)C5)c4)cnc(N)c23)ccc1NS(=O)(=O)C(F)F)c1ccc(F)cc1` (stereo partly drawn) [Compound 1121, N-(4-{4-amino-7-[1-(6-{4-[2-(2,6-dioxopiperidin-3-yl)-1,3-dioxo-2,3-dihydro-1H-isoindol-4-yl]piperazine-1-carbonyl}-1-methylpiperidin-3-yl)-1H-pyrazol-4-yl]-1-methyl-1H-pyrazolo[4,3-c]pyridin-3-yl}-2-[(1S)-1-(4-fluorophenyl)ethoxy]phenyl)-1,1-difluoromethanesulfonamide]: at human MLKL (full length), the Kd is less than 10 nM. In addition, the concentration for half-maximal inhibition (IC50) in test [1] is less than 1000 nM. The DC50 at endogenous MLKL in U937 and on endogenous MLKL in MDF was less than 1000 nM in each case.

For the compound `C[C@H](Oc1cc(-c2nn(C)c3c(-c4cnn(C5CCN(C(=O)CC6CCN(c7cccc8c7C(=O)N(C7CCC(=O)NC7=O)C8=O)CC6)CC5)c4)cnc(N)c23)ccc1NS(=O)(=O)C(F)F)c1ccc(F)cc1` (stereo partly drawn) [Compound 1048, N-[4-(4-amino-7-{1-[1-(2-{1-[2-(2,6-dioxopiperidin-3-yl)-1,3-dioxo-2,3-dihydro-1H-isoindol-4-yl]piperidin-4-yl}acetyl)piperidin-4-yl]-1H-pyrazol-4-yl}-1-methyl-1H-pyrazolo[4,3-c]pyridin-3-yl)-2-[(1S)-1-(4-fluorophenyl)ethoxy]phenyl]-1,1-difluoromethanesulfonamide], at human MLKL (full length), the Kd was less than 10 nM. The IC50 in test [1] was less than 1000 nM. In addition, the DC50 is 1000 to 10000 nM at endogenous MLKL in U937 and less than 1000 nM at endogenous MLKL in MDF.
